Source: PubChem BioAssay AID274 (DTP/NCI, 2004)
Inconclusive results and toxic doses are left out.

Tested on: BDF1 mice, Lewis lung carcinoma iv, survival T/C
Assay: NCI In Vivo Anticancer Drug Screen. Data for tumor model Lewis Lung Carcinoma (intravenous) in B6D2F1 (BDF1) mice
Conditions: endpoint: median survival time, higher = longer survival
Description: The antitumor activity of compounds was measured in mice bearing transplantable tumors. Survival or tumor size were measured and the results are expressed as the measurement made in the treated group (T) divided by the measurement made in the vehicle treated control group (C). The tumor model used in this assay is Lewis Lung Carcinoma (intravenous) in B6D2F1 (BDF1) mice

[1] = dose: 12.5 mg/kg/injection, schedule: Q01DX009 (ip), vehicle: Klucel (hydroxypropylcellulose) (HPC)
[2] = dose: 25.0 mg/kg/injection, schedule: Q01DX009 (ip), vehicle: Klucel (hydroxypropylcellulose) (HPC)
[3] = dose: 50.0 mg/kg/injection, schedule: Q01DX009 (ip), vehicle: Klucel (hydroxypropylcellulose) (HPC)
[4] = dose: 100.0 mg/kg/injection, schedule: Q01DX009 (ip), vehicle: Klucel (hydroxypropylcellulose) (HPC)
[5] = dose: 200.0 mg/kg/injection, schedule: Q01DX009 (ip), vehicle: Klucel (hydroxypropylcellulose) (HPC)
[6] = dose: 25.0 mg/kg/injection, schedule: Q01DX009 (ip), vehicle: saline with Tween-80
[7] = dose: 50.0 mg/kg/injection, schedule: Q01DX009 (ip), vehicle: saline with Tween-80
[8] = dose: 100.0 mg/kg/injection, schedule: Q01DX009 (ip), vehicle: saline with Tween-80
[9] = dose: 200.0 mg/kg/injection, schedule: Q01DX009 (ip), vehicle: saline with Tween-80
[10] = dose: 12.5 mg/kg/injection, schedule: Q01DX009 (ip), vehicle: saline
[11] = dose: 25.0 mg/kg/injection, schedule: Q01DX009 (ip), vehicle: saline
[12] = dose: 12.5 mg/kg/injection, schedule: Q01DX009 (ip), vehicle: saline with Tween-80
[13] = dose: 0.75 mg/kg/injection, schedule: Q01DX009 (ip), vehicle: saline
[14] = dose: 1.5 mg/kg/injection, schedule: Q01DX009 (ip), vehicle: saline
[15] = dose: 3.0 mg/kg/injection, schedule: Q01DX009 (ip), vehicle: saline
[16] = dose: 6.0 mg/kg/injection, schedule: Q01DX009 (ip), vehicle: saline
[17] = dose: 6.25 mg/kg/injection, schedule: Q01DX009 (ip), vehicle: saline

In the case of `CN(C1=NS(=O)(=O)N=C(N(C)c2ccccc2)O1)c1ccccc1`, the T/C [1] was 97 % of control, the T/C [2] was 102 % of control and the T/C [3] was 97 % of control. The T/C [4] was 99 % of control, the T/C [5] was 117 % of control and the T/C (dose: 400.0 mg/kg/injection, schedule: Q01DX009 (ip), vehicle: Klucel (hydroxypropylcellulose) (HPC)) was 102 % of control.

With `COc1ccc(CCNC(C)=O)cc1OC` the T/C [2] was 90 % of control, the T/C [3] was 94 % of control and the T/C [4] was 103 % of control. For the same compound, the T/C [5] was 105 % of control.

`CC(C)CC(NC(=O)CF)C(=O)O` (centres undefined) was tested, and the T/C (dose: 0.31 mg/kg/injection, schedule: Q01DX009 (ip), vehicle: saline) was 98 % of control, the T/C (dose: 0.63 mg/kg/injection, schedule: Q01DX009 (ip), vehicle: saline) was 94 % of control and the T/C (dose: 1.25 mg/kg/injection, schedule: Q01DX009 (ip), vehicle: saline) was 90 % of control. The T/C (dose: 2.5 mg/kg/injection, schedule: Q01DX009 (ip), vehicle: saline) was 102 % of control and the T/C (dose: 5.0 mg/kg/injection, schedule: Q01DX009 (ip), vehicle: saline) was 91 % of control.

In the case of `O=P(O)(NCCCl)NCCCl`, the T/C (dose: 25.0 mg/kg/injection, schedule: Q01DX001 (ip), vehicle: saline with Tween-80) was 111 % of control, the T/C (dose: 50.0 mg/kg/injection, schedule: Q01DX001 (ip), vehicle: saline with Tween-80) was 123 % of control and the T/C (dose: 100.0 mg/kg/injection, schedule: Q01DX001 (ip), vehicle: saline with Tween-80) was 208 % of control.

For `O=C(Nc1ccc(N=C=S)cc1Cl)c1cc(Cl)cc(Cl)c1O`, the T/C (dose: 6.25 mg/kg/injection, schedule: Q01DX009 (ip), vehicle: Klucel (hydroxypropylcellulose) (HPC)) was 97 % of control, the T/C [1] was 97 % of control and the T/C [2] was 105 % of control. For the same compound, the T/C [3] was 116 % of control.

`C(COCCOCC1CO1)OCCOCC1CO1` (centres undefined) was tested, and the T/C [6] was 107 % of control, the T/C [7] was 104 % of control and the T/C [8] was 98 % of control. The T/C [9] was 112 % of control.

With `C[Si](C)(C)O/C=C1/CCOC1=O` the T/C [10] was 116 % of control, the T/C [11] was 101 % of control and the T/C (dose: 50.0 mg/kg/injection, schedule: Q01DX009 (ip), vehicle: saline) was 107 % of control. For the same compound, the T/C (dose: 100.0 mg/kg/injection, schedule: Q01DX009 (ip), vehicle: saline) was 108 % of control, the T/C (dose: 200.0 mg/kg/injection, schedule: Q01DX009 (ip), vehicle: saline) was 93 % of control and the T/C (dose: 400.0 mg/kg/injection, schedule: Q01DX009 (ip), vehicle: saline) was 99 % of control.

With `COC(=O)C(F)C(Br)C(=O)OC` (centres undefined) the T/C (dose: 3.13 mg/kg/injection, schedule: Q01DX009 (ip), vehicle: saline with Tween-80) was 95 % of control, the T/C (dose: 6.25 mg/kg/injection, schedule: Q01DX009 (ip), vehicle: saline with Tween-80) was 99 % of control and the T/C [12] was 95 % of control. For the same compound, the T/C [6] was 100 % of control and the T/C [7] was 104 % of control.

`O=C(NCCCCCCCCCCNC(=O)N1CC1)N1CC1` was tested, and the T/C [13] was 117 % of control, the T/C [14] was 110 % of control and the T/C [15] was 122 % of control. The T/C [16] was 117 % of control.

With `COC1/C=C/C=C(/C)Cc2cc(O)c(Cl)c(c2)N(C)C(=O)CC(OC(=O)C(C)C)C2(C)OC2C(C)C2CC1(O)NC(=O)O2` (centres undefined) the T/C (dose: 0.12 mg/kg/injection, schedule: Q01DX009 (ip), vehicle: saline + alcohol) was 106 % of control, the T/C (dose: 0.25 mg/kg/injection, schedule: Q01DX009 (ip), vehicle: saline + alcohol) was 110 % of control and the T/C (dose: 0.5 mg/kg/injection, schedule: Q01DX009 (ip), vehicle: saline + alcohol) was 105 % of control. The T/C (dose: 1.0 mg/kg/injection, schedule: Q01DX009 (ip), vehicle: saline + alcohol) was 105 % of control.

For `C[CH2][Sn]([CH2]C)([O]S(C)(=O)=O)[O]S(C)(=O)=O`, the T/C (dose: 0.78 mg/kg/injection, schedule: Q01DX009 (ip), vehicle: saline) was 98 % of control, the T/C (dose: 1.56 mg/kg/injection, schedule: Q01DX009 (ip), vehicle: saline) was 105 % of control and the T/C (dose: 3.12 mg/kg/injection, schedule: Q01DX009 (ip), vehicle: saline) was 93 % of control. The T/C [17] was 92 % of control and the T/C [10] was 93 % of control.

In the case of `Clc1ccc2nnnn2n1`, the T/C [12] was 102 % of control, the T/C [6] was 115 % of control and the T/C [7] was 104 % of control. For the same compound, the T/C [8] was 98 % of control and the T/C [9] was 108 % of control.

`COc1cccc2c1C(=O)c1c(O)c3c(c(O)c1C2=O)C[C@@](O)(/C(C)=N\NC(=O)CO)C[C@@H]3OC1CC(N)C(O)C(C)O1` (some centres undefined) was tested, and the T/C (dose: 0.37 mg/kg/injection, schedule: Q01DX009 (ip), vehicle: saline) was 105 % of control, the T/C [13] was 106 % of control and the T/C [14] was 101 % of control. The T/C [15] was 115 % of control, the T/C [16] was 103 % of control and the T/C (dose: 12.0 mg/kg/injection, schedule: Q01DX009 (ip), vehicle: saline) was 105 % of control.

With `C=CCCC(=O)CCCC(=O)O[C@@H]1[C@@H]2[C@H](CC1(C)C)[C@H](O)[C@@]13O[C@@H]1[C@H](O)[C@@]1(CO1)[C@@]23C` the T/C (dose: 6.2 micrograms/kg/injection, schedule: Q01DX009 (ip), vehicle: Klucel (hydroxypropylcellulose) (HPC)) was 116 % of control, the T/C (dose: 12.5 micrograms/kg/injection, schedule: Q01DX009 (ip), vehicle: Klucel (hydroxypropylcellulose) (HPC)) was 120 % of control and the T/C (dose: 25.0 micrograms/kg/injection, schedule: Q01DX009 (ip), vehicle: Klucel (hydroxypropylcellulose) (HPC)) was 107 % of control. The T/C (dose: 50.0 micrograms/kg/injection, schedule: Q01DX009 (ip), vehicle: Klucel (hydroxypropylcellulose) (HPC)) was 112 % of control.

With `O=C(O)CC(=O)O.[NH-]CC[NH-].[Pt+2]` the T/C [17] was 111 % of control and the T/C [11] was 156 % of control.

For `COc1cc2ccnc(/C=N\NC(N)=S)c2cc1OC`, the T/C [6] was 101 % of control, the T/C [7] was 97 % of control and the T/C [8] was 92 % of control. The T/C [9] was 103 % of control.

In the case of `CCN1C[C@]2(COC)[C@H](O)C[C@H](OC)[C@]34C1[C@H]([C@H](OC)[C@H]23)[C@]1(OC(C)=O)[C@H]2[C@@H](OC(=O)c3ccccc3)[C@](O)(C[C@H]24)[C@@H](OC)[C@@H]1O`, the T/C (dose: 0.03 mg/kg/injection, schedule: Q01DX009 (ip), vehicle: Klucel (hydroxypropylcellulose) (HPC)) was 108 % of control, the T/C (dose: 0.06 mg/kg/injection, schedule: Q01DX009 (ip), vehicle: Klucel (hydroxypropylcellulose) (HPC)) was 107 % of control and the T/C (dose: 0.13 mg/kg/injection, schedule: Q01DX009 (ip), vehicle: Klucel (hydroxypropylcellulose) (HPC)) was 99 % of control.

`Cc1ccc2c(c1)C(=O)N(CC[P+](c1ccccc1)(c1ccccc1)c1ccccc1)C2=O` was tested, and the T/C (dose: 0.78 mg/kg/injection, schedule: Q09DX009 (ip), vehicle: water) was 98 % of control, the T/C (dose: 1.56 mg/kg/injection, schedule: Q09DX009 (ip), vehicle: water) was 89 % of control and the T/C (dose: 3.12 mg/kg/injection, schedule: Q09DX009 (ip), vehicle: water) was 89 % of control. The T/C (dose: 6.25 mg/kg/injection, schedule: Q09DX009 (ip), vehicle: water) was 87 % of control and the T/C (dose: 12.5 mg/kg/injection, schedule: Q09DX009 (ip), vehicle: water) was 97 % of control.
